Measured values as given in patent US10125125B2, “N-(heteroaryl)-sulfonamide derivatives useful as S100-inhibitors” (Active Biotech AB, priority 2013, dated 2018).
pIC50: −log10 of the molar value.

Target: biotinylated human S100A9 : rhRAGE-Fc interaction (Homo sapiens (Human), UniProt P06702)
Experiment: AlphaScreen inhibition assay, Biot-hS100A9:hRAGE-Fc (S100A9-RAGE inhibition assay)
Assay type: binding
Text: FIG. 1 is a schematic representation of an assay of the inhibition of the interaction between biotinylated human S100A9 and human RAGE-Fc using a small molecule S100A9 binder.
Inhibition Assay, Biot-hS100A9:hRAGE-Fc
The AlphaScreen (Amplified Luminescent Proximity Homogeneous Assay) contains two types of beads, Alpha Donor beads and Acceptor beads (PerkinElmer). Upon laser excitation at 680 nm a photosensitizer in the Donor bead converts ambient oxygen to a more excited singlet state. The singlet oxygen molecule diffuses (maximum 200 nm) to react with a thioxene derivative in the Acceptor bead and generates a chemiluminescence reaction. Fluorophores in the Acceptor bead subsequently emit light at 520-620 nm which can be detected in the EnVision® Multilabel plate Reader (PerkinElmer). The beads are light sensitive and all work with the beads is performed under subdued light conditions or using green filters on light sources (Roscolux Chroma Green #389, Rosco).
In the AlphaScreen Inhibition Assay described here, protein A (Staphylococcus aureus) conjugated Acceptor beads are used together with streptavidin coated Donor beads (Perkin Elmer 6760617M). The Acceptor beads are pre-incubated with Fc-tagged recombinant human RAGE (rhRAGE-Fc) allowing binding of the rhRAGE-Fc to protein A on the beads. Biotinylated human S100A9 (biot-hS100A9) is pre-incubated with the low molecular test compounds. The pre-mixes are then added to the wells of a micro-plate and incubated allowing interaction between biot-hS100A9 and rhRAGE-Fc. Subsequent addition of streptavidin coated Donor beads causes binding of the streptavidin to the biotinylated hS100A9. After an additional incubation the signal is measured.
Without inhibitory compounds, the interaction of biot-hS100A9 to rhRAGE-Fc will bring the Acceptor and Donor beads in close proximity thus generating a high signal. With an inhibitor present the complex will not form resulting in a decreased signal.
Chemicals and reagents. • AlphaScreen® General IgG (Protein A) Detection Kit, (PerkinElmer 6760617M) • HBS-P buffer (GE Healthcare, BR-1003-68) • HBS-N buffer (GE Healthcare, BR-1003-69) • CaCl2 in HBS-P • ZnCl2 in Milli-Q water • DMSO • Biotinylated hS100A9, (biotinylated via cystein by EZ-link Iodoacetyl-PEG2-Biotin reagent (Pierce no. 21334), in HBS-N • rhRAGE-Fc (R&D Systems, 1145-RG-50), in HBS-P
The AlphaScreen assay method is used for screening of the inhibitory effect of different compound samples at fixed concentrations or for IC50 determination by varying the compound concentrations. Samples of test compounds and references are prepared from solutions in DMSO. Relevant reference inhibitors and DMSO are used as controls for defined inhibition and non-inhibition, respectively in the assay. The percent inhibition in assay for test compounds and references are calculated by comparing their obtained assay signals with the signal values for the control with only DMSO (no compound).
Assay concentration of biotinylated hS100A9 and rhRAGE-Fc are batch dependent, and are determined and defined by separate cross-titration experiments using this AlphaScreen inhibition method to verify the optimal setup regarding signal strength and achievement of a defined inhibition with relevant reference compounds. The Final assay concentrations of Acceptor and Donor beads are 20 μg/mL.
Experimental Set Up for Screening, Preparation of Solutions and Beads.
Assay buffer is prepared by adding CaCl2 and ZnCl2 to HBS-P and is used freshly prepared in the experiment.
Biotin-hS100A9 solution for the experiment is prepared by dilution of appropriate amount of stock solution biot-hS100A9 in assay buffer (with CaCl2 and ZnCl2) and incubation in room temperature for 30 minutes.
rhRAGE-Fc solution for the experiment is prepared by dilution appropriate amount of rhRAGE-Fc stock in assay buffer.
Protein A Acceptor beads are diluted in assay buffer and are added to an equal volume of the prepared diluted rhRAGE-Fc solution.

Sequence of biotinylated human S100A9 : rhRAGE-Fc interaction (P06702 whole entry): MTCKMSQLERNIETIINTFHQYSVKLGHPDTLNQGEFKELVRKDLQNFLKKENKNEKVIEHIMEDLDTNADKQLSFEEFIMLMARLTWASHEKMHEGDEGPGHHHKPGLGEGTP

Row | SMILES | pIC50
1 | O=S(=O)(Cc1cc(Cl)cc(Cl)c1)Nc1cc(Cl)c(Cl)nc1O [Example 173, N-(5,6-dichloro-2-hydroxypyridin-3-yl)-1-(3,5-dichlorophenyl)methanesulfonamide] | > 6.00
2 | CCS(=O)(=O)c1cnc(NS(=O)(=O)Cc2cccc(Cl)c2)c(O)n1 [Example 88, 1-(3-chlorophenyl)-N-[5-(ethanesulfonyl)-3-hydroxypyrazin-2-yl]methane-sulfonamide] | < 6.00
3 | CS(=O)(=O)c1nc(NS(=O)(=O)Cc2cc(Cl)cc(Cl)c2)c(O)cc1Cl [Example 134, N-(5-chloro-3-hydroxy-6-methanesulfonylpyridin-2-yl)-1-(3,5-dichlorophenyl)-methanesulfonamide] | 6.28
4 | O=S(=O)(Cc1cc(Cl)cc(Cl)c1)Nc1nnc(Cl)cc1O [Example 36, N-(6-chloro-4-hydroxypyridazin-3-yl)-1-(3,5-dichlorophenyl)methanesulfonamide] | 7.00
5 | CS(=O)(=O)c1cnc(NS(=O)(=O)Cc2cc(Cl)cc(Cl)c2)c(O)n1 [Example 112, 1-(3,5-dichlorophenyl)-N-(3-hydroxy-5-methanesulfonylpyrazin-2-yl)methane-sulfonamide] | 6.38
6 | O=S(=O)(Cc1cc(Cl)cc(Cl)c1)Nc1cncc(Br)c1O [Example 97, N-(5-bromo-4-hydroxypyridin-3-yl)-1-(3,5-dichlorophenyl)methanesulfonamide] | 5.42
7 | O=S(=O)(Cc1cnc(N2CCCC2)c(Cl)c1)Nc1ccc(Cl)nc1O [Example 185, N-(6-chloro-2-hydroxypyridin-3-yl)-1-[5-chloro-6-(pyrrolidin-1-yl)pyridin-3-yl]-methanesulfonamide] | > 6.00
8 | COc1ncc(S(=O)(=O)Nc2cnc(C(F)(F)F)cc2O)cc1Br [Example 137, 5-bromo-N-[4-hydroxy-6-(trifluoromethyl)pyridin-3-yl]-6-methoxypyridine-3-sulfonamide] | 5.74
9 | CCS(=O)(=O)c1ccc(NS(=O)(=O)Cc2cc(Cl)cc(Cl)c2)c(O)n1 [Example 188, 1-(3,5-dichlorophenyl)-N-[6-(ethanesulfonyl)-2-hydroxypyridin-3-yl]methane-sulfonamide] | > 6.00
10 | CS(=O)(=O)c1cc(O)c(NS(=O)(=O)c2cc(Cl)cc(Cl)c2)cn1 [Example 155, 3,5-dichloro-N-(4-hydroxy-6-methanesulfonylpyridin-3-yl)benzene-1-sulfonamide] | < 6.00
11 | O=S(=O)(Cc1cc(Cl)cc(Cl)c1)Nc1nc(C(F)(F)F)ncc1O [Example 157, 1-(3,5-dichlorophenyl)-N-[5-hydroxy-2-(trifluoromethyl)pyrimidin-4-yl]methane-sulfonamide] | > 6.00
12 | O=S(=O)(Cc1ccc(Cl)c(Cl)c1)Nc1cnc(Cl)cc1O [Example 70, N-(6-chloro-4-hydroxypyridin-3-yl)-1-(3,4-dichlorophenyl)methanesulfonamide] | 6.10
13 | O=S(=O)(Cc1cc(Cl)cc(Cl)c1)Nc1nnc(S(=O)(=O)CCCO)cc1O [Example 139, 1-(3,5-dichlorophenyl)-N-[4-hydroxy-6-(3-hydroxypropanesulfonyl)pyridazin-3-yl]methanesulfonamide] | > 6.00
14 | CS(=O)(=O)c1cnc(NS(=O)(=O)Cc2cc(Cl)cc(Cl)c2)c(O)c1 [Example 32, 1-(3,5-dichlorophenyl)-N-(3-hydroxy-5-methanesulfonylpyridin-2-yl)methane-sulfonamide] | 6.85
15 | O=S(=O)(Nc1nc(Cl)ncc1O)c1ccc(Cl)c(Cl)c1 [Example 144, 3,4-dichloro-N-(2-chloro-5-hydroxypyrimidin-4-yl)benzene-1-sulfonamide] | > 6.00
16 | COc1ncc(CS(=O)(=O)Nc2ccc(Cl)nc2O)cc1Cl [Example 182, N-(6-chloro-2-hydroxypyridin-3-yl)-1-(5-chloro-6-methoxypyridin-3-yl)methane-sulfonamide] | > 6.00
17 | COc1ncc(S(=O)(=O)Nc2cncc(Cl)c2O)cc1Br [Example 59, 5-bromo-N-(5-chloro-4-hydroxypyridin-3-yl)-6-methoxypyridine-3-sulfonamide] | 5.55

Row | SMILES | pIC50
18 | O=S(=O)(Nc1ncc(Br)nc1O)C(c1cc(Cl)cc(Cl)c1)C(F)(F)F (racemic) [Example 141, (+/−)-N-(5-bromo-3-hydroxypyrazin-2-yl)-1-(3,5-dichlorophenyl)-2,2,2-trifluoroethane-1-sulfonamide] | > 6.00
19 | O=S(=O)(Cc1cc(Cl)cc(Cl)c1)Nc1cnc(Cl)nc1O [Example 107, N-(2-chloro-4-hydroxypyrimidin-5-yl)-1-(3,5-dichlorophenyl)methanesulfonamide] | 5.40
20 | O=S(=O)(Nc1ncc(Cl)cc1O)c1cncc(Br)c1 [Example 40, 5-bromo-N-(5-chloro-3-hydroxypyridin-2-yl)pyridine-3-sulfonamide] | 5.52
21 | COc1ncc(S(=O)(=O)Nc2cnccc2O)cc1Br [Example 62, 5-bromo-N-(4-hydroxypyridin-3-yl)-6-methoxypyridine-3-sulfonamide] | 5.36
22 | O=S(=O)(Nc1cncc(Cl)c1O)c1ccc(OC(F)(F)F)c(Cl)c1 [Example 102, 3-chloro-N-(5-chloro-4-hydroxypyridin-3-yl)-4-(trifluoromethoxy)benzene-1-sulfonamide] | 5.66
23 | CCCc1ccc(S(=O)(=O)Nc2ccc(Cl)nc2O)cc1 [Example 179, N-(6-chloro-2-hydroxypyridin-3-yl)-4-propylbenzene-1-sulfonamide] | > 6.00
24 | O=S(=O)(Nc1cncc(Cl)c1O)c1cc(Cl)cc(Cl)c1 [Example 89, 3,5-dichloro-N-(5-chloro-4-hydroxypyridin-3-yl)benzene-1-sulfonamide] | 5.68
25 | O=S(=O)(Cc1ccc(C(F)(F)F)cc1)Nc1ccc(Cl)nc1O [Example 178, N-(6-chloro-2-hydroxypyridin-3-yl)-1-[4-(trifluoromethyl)phenyl]methane-sulfonamide] | < 6.00
26 | CCN(CC)C(=O)c1cc(Cl)cc(CS(=O)(=O)Nc2nnc(Cl)cc2O)c1 [Example 161, 3-chloro-5-{[(6-chloro-4-hydroxypyridazin-3-yl)sulfamoyl]methyl}-N,N-diethylbenzamide] | 5.29
27 | CCSc1cc(Cl)cc(CS(=O)(=O)Nc2ccc(Cl)nc2O)c1 [Example 186, N-(6-chloro-2-hydroxypyridin-3-yl)-1-[3-chloro-5-(ethylsulfanyl)phenyl]methane-sulfonamide] | > 6.00
28 | O=S(=O)(Cc1cccc(Cl)c1)Nc1nnc(Cl)cc1O [Example 96, N-(6-chloro-4-hydroxypyridazin-3-yl)-1-(3-chlorophenyl)methanesulfonamide] | 6.39
29 | O=S(=O)(Nc1ncc(Cl)cc1O)c1ccc(C(F)(F)F)nc1 [Example 41, N-(5-chloro-3-hydroxypyridin-2-yl)-6-(trifluoromethyl)pyridine-3-sulfonamide] | < 6.00
30 | N#Cc1ccc(Cl)c(CS(=O)(=O)Nc2nnc(Cl)cc2O)c1 [Example 85, N-(6-chloro-4-hydroxypyridazin-3-yl)-1-(2-chloro-5-cyanophenyl)methane-sulfonamide] | 6.01
31 | N#Cc1cc(CS(=O)(=O)Nc2ncc(Cl)cc2O)cs1 [Example 127, N-(5-chloro-3-hydroxypyridin-2-yl)-1-(5-cyanothiophen-3-yl)methanesulfonamide] | 5.95
32 | O=S(=O)(Cc1cc(Cl)cc(Cl)c1)Nc1nc(Cl)ncc1O [Example 143, N-(2-chloro-5-hydroxypyrimidin-4-yl)-1-(3,5-dichlorophenyl)methanesulfonamide] | 6.74
33 | O=S(=O)(Cc1ccc(F)c(F)c1)Nc1nnc(Cl)cc1O [Example 76, N-(6-chloro-4-hydroxypyridazin-3-yl)-1-(3,4-difluorophenyl)methanesulfonamide] | > 6.00
